Test results as given in the NIST ThermoML archive (doi:10.1016/j.fluid.2008.10.003).

Assay: isobaric coefficient of expansion
Details: calorimetric method

CCCCCCO [hexan-1-ol]
isobaric coefficient of expansion
Details | 5000 kPa | 10000 kPa | 15000 kPa | 20000 kPa | 25000 kPa | 30000 kPa | 35000 kPa | 40000 kPa | 45000 kPa | 50000 kPa
278.15 K | 0.000821 1/K | 0.0008 1/K | 0.000788 1/K | 0.000778 1/K | 0.00076 1/K | 0.000748 1/K | 0.000733 1/K | 0.000723 1/K | 0.000716 1/K | 0.000708 1/K
298.15 K | 0.00085 1/K | 0.000832 1/K | 0.000812 1/K | 0.000796 1/K | 0.00078 1/K | 0.000764 1/K | 0.000749 1/K | 0.000734 1/K | 0.000724 1/K | 0.000712 1/K
328.15 K | 0.000929 1/K | 0.0009 1/K | 0.000876 1/K | 0.000854 1/K | 0.000833 1/K | 0.000813 1/K | 0.000794 1/K | 0.000776 1/K | 0.000759 1/K | 0.000745 1/K
348.15 K | 0.000995 1/K | 0.00096 1/K | 0.000929 1/K | 0.000903 1/K | 0.000875 1/K | 0.000852 1/K | 0.000831 1/K | 0.000808 1/K | 0.000791 1/K | 0.000772 1/K
